PMC6410080 (Viruses, 2019)
pIC50: −log10 of the molar value. Several values for one entry are separate records, joined by “and”; a condition that tells them apart may be missing. Identical values can stand only once. Counter-ions that a name gives are not always drawn. Like-named read-outs stand apart in the source and are kept apart here.

How the values were obtained:
[1] = tested on: HeLa Kyoto cells; conditions: 10 µM
[2] = tested on: Huh7 cells; conditions: 10 µM
[3] = tested on: SFV; test: microbe, parasite or virus in culture; assay type: cell-based, Semliki Forest virus; conditions: for % inhibition (SFV screen): 10 µM
[4] = tested on: DENV-2; test: DENV-2 infection assay / secondary screen (E protein staining); assay type: cell-based, dengue virus serotype 2; conditions: for % inhibition (DENV-2 screen): 10 µM; for inhibition at 10 µM: read-out: % inhibition (DENV-2 screen)
[5] = tested on: Huh7 cells; test: MTT assay, Huh7 cells; conditions: for TC50 DENV-2 (7 + 17 h): Huh7, compounds 7 h then compound-free media 17 h; for TC50 DENV-2 (24 h): Huh7, compounds 24 h
[6] = tested on: DENV-3; test: microbe, parasite or virus in culture; assay type: cell-based, dengue virus
[7] = tested on: YF17D; test: organism not typed; assay type: cell-based, yellow fever 17D
[8] = tested on: SFV; assay type: cell-based, Semliki Forest virus
[9] = tested on: HeLa Kyoto cells
[10] = tested on: HCV; test: microbe, parasite or virus in culture; assay type: cell-based, hepatitis C virus
[11] = tested on: DENV-1; test: microbe, parasite or virus in culture; assay type: cell-based, dengue virus
[12] = tested on: HSV-1; test: microbe, parasite or virus in culture; assay type: cell-based, herpes simplex virus 1; conditions: read-out: IC50 HSV (Vero)
[13] = tested on: VSV VLP; test: microbe, parasite or virus in culture; assay type: cell-based, vesicular stomatitis virus; conditions: read-out: IC50 VSV
[14] = tested on: VACV; test: microbe, parasite or virus in culture; assay type: cell-based, vaccinia virus
[15] = tested on: RABV VLP; test: microbe, parasite or virus in culture; assay type: cell-based, rabies virus; conditions: read-out: IC50 RABV
[16] = tested on: EBOV VLP; test: microbe, parasite or virus in culture; assay type: cell-based, Ebola virus; conditions: for pIC50: read-out: IC50 EBOV
[17] = tested on: HIV-1; test: microbe, parasite or virus in culture; assay type: cell-based, human immunodeficiency virus type 1
[18] = tested on: ZIKV; test: microbe, parasite or virus in culture; assay type: cell-based, Zika virus
[19] = tested on: SINV; test: microbe, parasite or virus in culture; assay type: cell-based, Sindbis virus; conditions: read-out: IC50 SINV
[20] = tested on: H5N1 VLP; test: microbe, parasite or virus in culture; assay type: cell-based, influenza H5N1; conditions: for pIC50: read-out: IC50 H5N1
[21] = tested on: viruses/VLPs tested; assay type: cell-based
[22] = in vitro; conditions: human
[23] = in vitro; conditions: human, % viability (SFV screen)
[24] = tested on: Renilla luciferase expression (protein synthesis); assay type: cell-based
[25] = Huh7, 24 h, compared to DMSO-treated controls
[26] = Huh7, MOI 1, 24 h, compared to DMSO-treated controls
[27] = Huh7, compounds 7 h then media replaced for 17 h, read-out: IC50 DENV-2 (7 + 17 h)
[28] = Huh7, compounds for entire 24 h, read-out: IC50 DENV-2 (24 h)
[29] = Dengue virus, DENV2, Huh-7, 24 h

## C=CCN1CC[C@]23c4c5ccc(O)c4O[C@@H]2/C(=N/N=C2\CC[C@@]4(O)C6Cc7ccc(O)c8c7[C@@]4(CCN6CC=C)[C@@H]2O8)CC[C@@]3(O)C1C5.Cl.Cl [Naloxonazine dihydrochloride]
[1]
  % viability (SFV screen): 87.36%
[2]
  % viability (DENV-2 screen): 111.66%
[3]
  % inhibition (SFV screen): 70.80%
[4]
  % inhibition (DENV-2 screen): 16.23%

## COc1ccc(C[C@@H](C)NC[C@H](O)c2ccc(O)c(NC=O)c2)cc1.COc1ccc(C[C@@H](C)NC[C@H](O)c2ccc(O)c(NC=O)c2)cc1.O=C(O)/C=C/C(=O)O [Formoterol fumarate]
[1]; HeLa Kyoto, 7 h, compared to DMSO-treated controls, LOPAC and Prestwick samples listed separately
  % viability (SFV screen): 97.47%
[2]; [25]
  % viability (DENV-2 screen): 102.07%
[3]
  % inhibition (SFV screen): 86.74%
[4]
  % inhibition (DENV-2 screen): -41.42%

## Cl.Cl.Fc1ccc(C(OCCN2CCN(CCCc3ccccc3)CC2)c2ccc(F)cc2)cc1 [GBR 12909 dihydrochloride]
[1]
  % viability (SFV screen): 90.30%
[2]
  % viability (DENV-2 screen): 38.91%
[3]
  % inhibition (SFV screen): 75.39%
[4]; [26]
  % inhibition (DENV-2 screen): 83.87%

## CC(=O)/C=C1\C(=O)N(C)c2ccccc21 [Supercinnamaldehyde]
[5]
  TC50 DENV-2 (7 + 17 h): 59.6 µM
  TC50 DENV-2 (24 h): 25.8 µM
[1]
  % viability (SFV screen): 69.48%
[6]; read-out: IC50 DENV-3
  pIC50: 4.91
[7]; read-out: IC50 YF17D
  pIC50: 5.12
[8]
  Activity when added before SFV or 30 and 60 min after internalisation: No difference
  Time of Addition: After fusion
[9]
  TC50 SFV (7 h): 40.5 µM
  TC50 SFV (7h): 40500 µM
[2]
  % viability (DENV-2 screen): 90.32%
[3]
  % inhibition (SFV screen): 89.06%
[10]; read-out: IC50 HCV
  pIC50: 4.80
[11]; read-out: IC50 DENV-1
  pIC50: ~4.64
[12]
  pIC50: 4.60
[13]
  pIC50: 4.84
[14]
  IC50 VACV: No inhibition
[15]
  pIC50: 4.67
[4]; [26]
  % inhibition (DENV-2 screen): 64.49%
[4]; [27]
  pIC50: 4.81
[4]; [28]
  pIC50: 4.82
[16]
  pIC50: 4.67
[17]
  IC50 HIV: No inhibition
[18]
  IC50 ZIKV: No inhibition
[19]
  pIC50: 4.60
[20]
  pIC50: 4.76

## O=C1c2c(O)ccc(O)c2C(=O)c2c(NCCNCCO)ccc(NCCNCCO)c21 [Mitoxantrone, Mitoxantrone dihydrochloride]
[5]
  TC50 DENV-2 (7 + 17 h): 7.9 µM
  TC50 DENV-2 (24 h): 4.6 µM
[21]
  Viruses Inhibited: Unclear pattern
[1]; human
  % viability (SFV screen): 88.92%
[22]
  viability at 10 µM: 11.2%
[6]; Dengue virus, DENV3, Huh-7, read-out: IC50 DENV-3
  pIC50: 5.20
[7]; Huh-7, read-out: IC50 YF17D
  pIC50: 5.66
[8]
  Activity when added before SFV or 30 and 60 min after internalisation: progressive and more dramatic decrease in activity
  Time of Addition: Before and after fusion
[9]; human
  TC50 SFV (7 h): 43.2 µM
  TC50 SFV (7h): 43200 µM
[3]
  % inhibition (SFV screen): 59.01% and 85.19%
[3]; Semliki Forest virus, HeLa Kyoto, read-out: IC50 SFV (7 h)
  pIC50: 5.15
[10]; Hepatitis C virus, Huh7.5, read-out: IC50 HCV
  pIC50: 5.57
[11]; Dengue virus, DENV1, Huh-7, read-out: IC50 DENV-1
  pIC50: 5.25
[12]; Human alphaherpesvirus 1, Vero, 8 h
  pIC50: 5.17
[13]; Vesicular stomatitis virus, HeLa Kyoto, 24 h
  pIC50: 6.22
[14]
  IC50 VACV: No inhibition
[15]; Lyssavirus rabies, HeLa Kyoto, 24 h
  pIC50: > 6.30
[23]
  viability at 10 µM: 88.5%
[4]; [29]
  inhibition at 10 µM: 99.4%
[4]; Dengue virus, DENV2, Huh-7, 24 h, read-out: IC50 DENV-2 (7 + 17 h)
  pIC50: 5.70
[4]; Dengue virus, DENV2, Huh-7, 24 h, read-out: IC50 DENV-2 (24 h)
  pIC50: 5.68
[16]; Zaire ebolavirus, HeLa Kyoto, 48 h
  pIC50: 7.00
[18]; Zika virus, Huh-7, read-out: IC50 ZIKV
  pIC50: ~4.60
[19]; Sindbis virus, HeLa Kyoto
  pIC50: 5.00
[20]; Influenza A virus, H5N1, HeLa Kyoto, 48 h
  pIC50: 5.55

## CCOC(=O)N1CCN(/[N+]([O-])=N/Oc2ccc([N+](=O)[O-])cc2[N+](=O)[O-])CC1 [JS-K]
[1]
  % viability (SFV screen): 66.74%
[2]; [25]
  % viability (DENV-2 screen): 53.82%
[3]
  % inhibition (SFV screen): 84.89%
[4]; [26]
  % inhibition (DENV-2 screen): 84.24%

## Cl.Cn1c(CCCC(=O)O)nc2cc(N(CCCl)CCCl)ccc21 [Bendamustine hydrochloride]
[1]
  % viability (SFV screen): 76.50%
[2]; [25]
  % viability (DENV-2 screen): 85.62%
[3]
  % inhibition (SFV screen): 104.91%
[4]
  % inhibition (DENV-2 screen): 56.91%

## O=[N+]([O-])c1ccc2c(c1)S(=O)(=O)C=C2 [Stattic]
[5]
  TC50 DENV-2 (7 + 17 h): 17.3 µM
  TC50 DENV-2 (24 h): 9.7 µM
[21]
  Viruses Inhibited: All tested
[24]
  Decrease of Renilla signal (protein synthesis): more than 50%
  Inhibition of protein synthesis at lower concentrations: lose their inhibitory activity on protein synthesis
[1]
  % viability (SFV screen): 64.89%
[7]; read-out: IC50 YF17D
  pIC50: 5.31
[8]
  Activity when added before SFV or 30 and 60 min after internalisation: No difference
  Time of Addition: After fusion
[9]
  TC50 SFV (7 h): 7.8 µM
  TC50 SFV (7h): 7800 µM
[2]
  % viability (DENV-2 screen): 60.49%
[3]
  % inhibition (SFV screen): 95.82%
[10]; read-out: IC50 HCV
  pIC50: 5.43
[12]
  pIC50: 5.28
[14]; read-out: IC50 VACV
  pIC50: 5.39
[15]
  pIC50: 5.49
[4]; [26]
  % inhibition (DENV-2 screen): 87.08%
[4]; [27]
  pIC50: 5.52
[4]; [28]
  pIC50: 6.05
[16]
  IC50 EBOV: Toxic
[17]; read-out: IC50 HIV
  pIC50: 5.49
[18]; read-out: IC50 ZIKV
  pIC50: 5.40
[19]
  pIC50: 5.44
[20]
  IC50 H5N1: Toxic

## CC[C@H]1CN2CCc3cc(OC)c(OC)cc3[C@@H]2C[C@@H]1C[C@H]1NCCc2cc(OC)c(OC)cc21 [Emetine dihydrochloride hydrate]
[24]
  Renilla signal (in words): significantly reduced the Renilla signal
[22]
  viability at 10 µM: 51.2%
[3]; Semliki Forest virus, M-HeLa, 7 h, read-out: % inhibition (SFV screen)
  inhibition at 10 µM: 104%
[23]
  viability at 10 µM: 104%
[4]; [29]
  inhibition at 10 µM: 100%

## CCSc1ccc2c(c1)N(CCCN1CCN(C)CC1)c1ccccc1S2.O=C(O)CC(O)C(=O)O.O=C(O)CC(O)C(=O)O [Thiethylperazine dimalate]
[1]
  % viability (SFV screen): 92.47%
[2]
  % viability (DENV-2 screen): 0.15%
[3]
  % inhibition (SFV screen): 91.68%
